Test results: patent US9101631B2, “Combination therapy based on SRC and aurora kinase inhibition for the treatment of cancer” (Georgetown University, priority 2008, dated 2015)

System: HCT116 colorectal cancer cells
Assay: In vitro viability-based synergy assay (CellTiter Blue), dasatinib and C1368 alone and in combination
Procedure: HCT116 cells were plated at 3000 cells/well concentration into 96 well plates. […] Cells were incubated for an additional 72 hours and cellular viability measurements were performed using CellTiter Blue assay (Promega). IC50 values were calculated using XLFit and CI values were calculated using Calcusyn (Biosoft).

Row | SMILES | IC50 value, agent alone (HCT116 cells, 72 hours treatment, single agent) | IC50 (Homo sapiens, HCT-116, 72 h, read-out: IC50 value, agent alone) [nM]
1 | O=C(Nc1cccc(Nc2nccc(Nc3cccc(C(F)(F)F)c3)n2)c1)C1CC1 [C1368, Cyclopropanecarboxylic acid {3-[4-(3-trifluoromethyl-phenylamino)-pyrimidin-2-ylamino]-phenyl}-amide] | undeterminable | 
2 | Cc1nc(Nc2ncc(C(=O)Nc3c(C)cccc3Cl)s2)cc(N2CCN(CCO)CC2)n1 [dasatinib] |  | 600
